Assays:
[1] = test system: highly antibiotic-resistant strains of bacteria; assay: In vitro killing of highly antibiotic-resistant bacteria by activated MSC and antibiotic; format: cell-based; settings: triplicate cultures, assessed 4 h later; antibiotic at very high doses
Method: Using a similar experimental design as described in Example 9, supra, highly antibiotic-resistant strains of bacteria were incubated with activated MSC alone, antibiotics alone (cefazolin (cefa)), or antibiotics+activated MSC in triplicate cultures and bacterial killing assessed 4 h later.

inflammatory monocytes = format: in vivo, mice; settings: chronic S. aureus infected wounds; i.v. MSC; compared to untreated control animals
Method: Studies were done to investigate the impact of activated MSC on host immune responses, including monocyte, macrophage, and neutrophil responses. The numbers of monocytes migrating into wound tissues was determined by use of reporter mice whose inflammatory monocytes all expressed GFP. Wounds from S. aureus infected mice were immunostained for detection of inflammatory monocytes.

Compound	bacterial killing [1]	number of monocytes infiltrating the wounds (inflammatory monocytes)
Cc1nnc(SCC2=C(C(=O)O)N3C(=O)[C@@H](NC(=O)Cn4cnnn4)[C@H]3SC2)s1 [cefazolin]	little bacterial killing	
amoxicillin-clavulanic acid [antibiotics]		relatively sparse population of monocytes

Source: patent US20260151431A1, “ACTIVATED STEM CELLS AND SYSTEMIC TREATMENT METHODS FOR INFECTED WOUNDS” (Colorado State University Research Foundation, priority 2015, published 2026)
